We go through 4 compounds from patent US9061030B2, “sGC stimulators” (IRONWOOD PHARMACEUTICALS, INC., priority 2010, dated 2015).

Experiment [1] has as its system Thoracic aortic rings. Nature of the experiment: Thoracic aortic rings assay. Details: species or system rat. Conditions: relaxation of rat thoracic aortic rings contracted with 100 ng/mL phenylephrine; read-out: Aortic Ring EC50. As for the experimental part: Thoracic aortic rings were dissected from anesthetized (isoflurane) male Sprague-Dawley rats weighing 275-299 g. Tissues were immediately transferred to ice-cold Krebs-Henseleit solution, which had been aerated with 95% O2 and 5% CO2 for 30 minutes. Following removal of connective tissue, aortic sections were cut into 4 rings (˜2 mm each) and suspended on 2 L-shaped hooks, with one hook fixed at the bottom of the tissue bath (Schuler Organ Bath, Harvard Apparatus) and the other connected to a force transducer (F30 Force Transducer, Harvard Apparatus). Baths contained Krebs Henseleit solution (10 mL) heated to 37° C. and aerated with 95% O2 and 5% CO2. Rings were brought to an initial tension of 0.3-0.5 g and gradually raised to a resting tension of 1.0 g over 60 minutes. Rings were rinsed with Krebs Henseleit solution (heated to 37° C. and aerated with 95% 02 and 5% CO2) at 15 minute intervals until a stable baseline was obtained. Rings were considered to be stable after a resting tension of 1.0 g was maintained (for approximately 10 minutes) without need for adjustment. Rings were then contracted with 100 ng/mL phenylephrine by adding 100 μL of a 10 μg/mL phenylephrine stock solution. Tissues achieving a stable contraction were then treated in a cumulative, dose dependent manner with test compounds prepared in dimethylsulfoxide (DMSO). In some cases, tissues were rinsed three times over a 5 minute period with Krebs-Heinseleit's solution (heated to 37° C. and aerated with 95% 02 and 5% CO2), allowed to stabilize at baseline, and then used for characterization of other test articles or DMSO effects. All data were collected using the HSE-ACAD software provided by Harvard Apparatus. Percent relaxation effects were calculated in Microsoft Excel using the recorded tension value of 100 ng/mL phenylephrine treatment as 0% inhibition and, after washing the tissue with buffer, the original resting tension of tissue is used as 100% inhibition. EC50 values were calculated from concentration-response curves generated with GraphPad Prism Software.
The biological data for some of the compounds of Formula IA and Formula IB, in comparison with the prior art compound, BAY 41-2272, as the reference compound, determined by the thoracic aorta ring assay are presented in Table 6 below.

Experiment [2] concerns the target T1, soluble guanylate cyclase (sGC) (Homo sapiens, UniProt Q02108+Q02153).
T1 construct: endogenously expressing soluble guanylate cyclase (sGC); endogenous in cells; host or cells: HEK293
T1 sequence (Q02153 1-619): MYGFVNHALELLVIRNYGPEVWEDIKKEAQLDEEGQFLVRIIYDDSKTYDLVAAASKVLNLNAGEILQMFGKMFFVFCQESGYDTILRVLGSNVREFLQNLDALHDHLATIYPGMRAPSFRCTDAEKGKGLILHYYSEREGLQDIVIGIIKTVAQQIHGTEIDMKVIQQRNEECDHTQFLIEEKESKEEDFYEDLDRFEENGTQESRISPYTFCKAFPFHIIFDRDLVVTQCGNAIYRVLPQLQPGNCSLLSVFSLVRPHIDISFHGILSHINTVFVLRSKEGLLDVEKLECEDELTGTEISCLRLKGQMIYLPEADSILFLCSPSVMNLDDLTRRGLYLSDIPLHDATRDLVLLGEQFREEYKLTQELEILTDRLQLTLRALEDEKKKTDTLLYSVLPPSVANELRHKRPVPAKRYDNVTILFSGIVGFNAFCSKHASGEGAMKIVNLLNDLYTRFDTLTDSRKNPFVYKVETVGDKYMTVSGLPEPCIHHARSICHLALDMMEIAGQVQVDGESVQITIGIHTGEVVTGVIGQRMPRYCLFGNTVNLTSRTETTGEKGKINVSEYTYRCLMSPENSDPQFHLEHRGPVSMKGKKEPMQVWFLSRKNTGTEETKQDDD
T1 sequence (Q02108 1-690): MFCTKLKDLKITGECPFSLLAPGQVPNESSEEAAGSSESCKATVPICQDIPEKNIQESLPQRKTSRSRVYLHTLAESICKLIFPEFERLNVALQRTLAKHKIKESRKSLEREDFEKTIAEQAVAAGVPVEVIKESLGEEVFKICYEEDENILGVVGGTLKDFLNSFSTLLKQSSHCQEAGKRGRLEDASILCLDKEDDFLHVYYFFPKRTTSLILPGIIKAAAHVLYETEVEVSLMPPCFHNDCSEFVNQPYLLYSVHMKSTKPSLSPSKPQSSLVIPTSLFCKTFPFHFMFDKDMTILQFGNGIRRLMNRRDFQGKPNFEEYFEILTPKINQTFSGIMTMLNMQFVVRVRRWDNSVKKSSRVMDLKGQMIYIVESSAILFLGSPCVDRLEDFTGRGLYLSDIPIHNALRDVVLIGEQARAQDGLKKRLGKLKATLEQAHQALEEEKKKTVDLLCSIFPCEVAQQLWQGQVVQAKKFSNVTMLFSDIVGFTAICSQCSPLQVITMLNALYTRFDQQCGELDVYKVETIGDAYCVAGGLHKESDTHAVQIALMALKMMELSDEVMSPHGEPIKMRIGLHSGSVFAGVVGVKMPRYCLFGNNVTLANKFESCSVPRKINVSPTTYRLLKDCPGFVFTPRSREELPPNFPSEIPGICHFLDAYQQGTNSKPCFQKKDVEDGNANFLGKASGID
Nature of the experiment: sGC-HEK-cGMP assay. The following applies: HEK293 cells, 10 μM SNP, percentage of sGC activity obtained with positive control BAY 41-2272 (= 100%); for Emax at 10 µM: compound at 10 μM; for Emax at 30 µM: compound at 30 μM. Format: cell-based. The method, boiled down:
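HEK293 cells endogenously expressing sGC, preincubated 15 min at 37 °C with 0.5 mM IBMX, then exposed to compound plus 10 μM sodium nitroprusside for 10 min at 37 °C. Reaction stopped and cells lysed with 0.1 M HCl; cGMP quantified by LC/MS against a standard curve; EC50 from concentration-response curves.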

For experiment [3], the target named is T2, Human soluble guanylate cyclase enzyme (hsGC) (Homo sapiens, UniProt Q02108+Q02153).
T2 construct: purchased Enzo Inc. ALX-201-177
T2 sequence (Q02153 1-619): T1 sequence (Q02153 1-619)
T2 sequence (Q02108 1-690): T1 sequence (Q02108 1-690)
Nature of the experiment: Purified human sGC enzyme activity assay (with or without SNP). Conditions: 30 μM compound; for sGC Enzyme Activity Increase at 30 μM with SNP: 1 μM SNP, specific activity vs DMSO and SNP; for sGC Enzyme Activity Increase at 30 μM without SNP: specific activity vs DMSO control. Format: biochemical. The method, boiled down: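 Purified human sGC (5 ng) incubated 30 min at 37° C with compound at 10 or 30 μM, 300 μM GTP, 2 mM MgCl2 and 1 mM IBMX at pH 8.0, with or without 1 μM SNP. cGMP formed was quantified against a standard curve. Results are given as fold-change in specific activity over DMSO (or DMSO+SNP) control.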

pEC50: −log10 of the molar value.

Take `Nc1nc(-c2nn(Cc3ccccc3F)c3ncccc23)ncc1C1CC1` [BAY-41-2272, reference compound]: the pEC50 in experiment [1] is greater than 6.00.
In experiment [2], `Fc1ccccc1Cn1nc(-c2nccs2)nc1-c1cocn1` [Compound I-63] yielded a maximal response (Emax) at 10 µM of 60 to 80% and an Emax at 30 µM of 20 to 40%. In experiment [3], the “sGC Enzyme Activity Increase at 30 μM with SNP” value is on record as “D (D = 5 to <10 fold increase)” and the “sGC Enzyme Activity Increase at 30 μM without SNP” value is “B (B = 1 to <2 fold increase)”.
On the same counts, the results for `Fc1ccccc1Cn1nc(-c2cc(N3CCOCC3)ccn2)nc1-c1nccs1` [Compound I-65, 4-(2-(1-(2-fluorobenzyl)-5-(thiazol-2-yl)-1H-1,2,4-triazol-3-yl)pyridin-4-yl)morpholine] are 80 to 100%, 80 to 100%, “E (E = 10 to <20 fold increase)” and “D (D = 5 to <10 fold increase)”.
In experiment [2], `Fc1ccccc1Cn1nc(-c2cc(N3CCOCC3)ccn2)nc1-c1cocn1` [Compound I-68, 4-(2-(1-(2-fluorobenzyl)-5-(oxazol-4-yl)-1H-1,2,4-triazol-3-yl)pyridin-4-yl)morpholine] gave an Emax at 10 µM of 20 to 40% and an Emax at 30 µM of 40 to 60%. Moreover, in experiment [3], the “sGC Enzyme Activity Increase at 30 μM with SNP” value was “E (E = 10 to <20 fold increase)” and the “sGC Enzyme Activity Increase at 30 μM without SNP” value is recorded as “C (C = 2 to <5 fold increase)”.
